pIC50, pKd: −log10 of the molar value.
How the values were obtained:
MDA-MB-231 = MDA-MB-231 orthotopic TNBC xenograft; type: in vivo, female SCID mice; conditions: 40 mg/kg, 5 daily doses, three rounds
Method: Once tumors were formed, mice were randomized into 4 cohorts (n=10) and treated, at 7-10 day intervals, with three rounds of: vehicle (5 daily doses), 1 mg/kg doxorubicin (single dose), 40 mg/kg Senexin B (5 daily doses) or doxorubicin (single dose)+Senexin B (5 daily doses).

CDK8 [1] = biological target: T1, CDK8 (Homo sapiens, UniProt P49336); experiment: Kd determination, CDK8; type: binding; conditions: in duplicate
Text: (§1) (16) The results of this analysis are presented in FIGS. 6A-B in the form of an evolutionary dendrogram of the kinase family, where kinase inhibition is represented by red circles, the size of which represents the magnitude of the inhibition.

[2] = Pharmacokinetics in rat plasma; type: in vivo; conditions: i.p. 40 mg/kg
Water solubility = type: physicochemical; conditions: 40° C., 30 min, no pellet after centrifugation
Method: The compounds were also tested for solubility in 20% propylene glycol and in water, as follows. Compounds (dry powder) were dissolved in 20% propylene glycol at a concentration of 1 mM at a temperature of 40° C. with occasional vortexing. After 30 min, the solution was centrifuged at 10,000×g for 5 min. Serial dilutions of the cleared supernatant were prepared and used to measure the compound concentrations through OD reading, relative to 1 μM standard solution of the same compound. The results of the measurement were expressed as % solubility of the compound at 1 mM in 20% propylene glycol. To determine water solubility, the compounds (dry powder) were initially dissolved in water at a concentration of 100 mM at a temperature of 40° C. with occasional vortexing. After 30 min, the solution was centrifuged at 10,000×g for 5 min, and the formation of an insoluble pellet was monitored. At subsequent steps, the compound was attempted to be dissolved at lower concentrations, until no pellet was observed after centrifugation, indicating complete solution of the compound.

[3] = Pharmacokinetics in mouse plasma (gavage); type: in vivo; conditions: mice, gavage 100 mg/kg
[4] = 12-day animal toxicity study; type: in vivo, Balb/c mice; conditions: 40 mg/kg i.p.
CDK8 [5] = biological target: T1, CDK8; experiment: In vitro CDK8 kinase activity inhibition (ProQinase assay kit); conditions: read-out: IC50, inhibition of CDK8 kinase activity, different assays
MDA-MB-468 = MDA-MB-468 TNBC xenograft model; type: in vivo, female nude mice; conditions: 40 mg/kg Senexin B daily i.p.; 4 mg/kg doxorubicin two injections two weeks apart
Method: Female nude mice were inoculated with MDA-MB-468 cells, and once palpable tumors were formed, mice were randomized into 4 groups, treated daily i.p. with vehicle alone (n=12), 40 mg/kg Senexin B, two injections with 4 mg/kg doxorubicin two weeks apart, or doxorubicin combined with Senexin B (n=8 in each of the latter groups).

MAP4K2 = biological target: T2, MAP4K2 (Homo sapiens, UniProt Q12851); experiment: KinomeScan ATP pocket binding inhibition, MAP4K2; conditions: 2,000 nM
T2 construct: purchased KinomeScan, a division of Ambit Biosciences
T2 sequence (Q12851 1-820): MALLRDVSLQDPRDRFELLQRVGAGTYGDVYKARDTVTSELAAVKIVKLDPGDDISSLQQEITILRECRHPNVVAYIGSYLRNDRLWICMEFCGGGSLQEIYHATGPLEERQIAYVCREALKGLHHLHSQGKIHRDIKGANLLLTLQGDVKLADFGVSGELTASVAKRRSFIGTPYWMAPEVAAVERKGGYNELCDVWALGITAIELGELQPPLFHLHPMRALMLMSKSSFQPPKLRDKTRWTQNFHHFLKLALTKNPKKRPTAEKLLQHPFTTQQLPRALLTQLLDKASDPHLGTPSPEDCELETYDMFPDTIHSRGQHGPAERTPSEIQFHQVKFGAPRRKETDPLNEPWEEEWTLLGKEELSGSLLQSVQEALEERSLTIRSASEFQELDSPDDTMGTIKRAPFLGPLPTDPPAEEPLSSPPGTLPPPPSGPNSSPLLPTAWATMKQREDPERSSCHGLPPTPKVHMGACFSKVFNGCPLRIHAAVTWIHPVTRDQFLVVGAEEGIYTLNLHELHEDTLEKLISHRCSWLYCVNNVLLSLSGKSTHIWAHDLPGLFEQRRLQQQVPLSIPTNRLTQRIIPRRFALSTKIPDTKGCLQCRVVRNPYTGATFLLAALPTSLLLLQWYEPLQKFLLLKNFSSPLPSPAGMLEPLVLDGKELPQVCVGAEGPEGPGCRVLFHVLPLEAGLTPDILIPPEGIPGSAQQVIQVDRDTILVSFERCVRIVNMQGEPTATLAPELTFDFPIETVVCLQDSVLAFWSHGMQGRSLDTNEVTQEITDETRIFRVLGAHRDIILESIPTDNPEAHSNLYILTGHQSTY
Text: as §1

T1 sequence (P49336 whole entry): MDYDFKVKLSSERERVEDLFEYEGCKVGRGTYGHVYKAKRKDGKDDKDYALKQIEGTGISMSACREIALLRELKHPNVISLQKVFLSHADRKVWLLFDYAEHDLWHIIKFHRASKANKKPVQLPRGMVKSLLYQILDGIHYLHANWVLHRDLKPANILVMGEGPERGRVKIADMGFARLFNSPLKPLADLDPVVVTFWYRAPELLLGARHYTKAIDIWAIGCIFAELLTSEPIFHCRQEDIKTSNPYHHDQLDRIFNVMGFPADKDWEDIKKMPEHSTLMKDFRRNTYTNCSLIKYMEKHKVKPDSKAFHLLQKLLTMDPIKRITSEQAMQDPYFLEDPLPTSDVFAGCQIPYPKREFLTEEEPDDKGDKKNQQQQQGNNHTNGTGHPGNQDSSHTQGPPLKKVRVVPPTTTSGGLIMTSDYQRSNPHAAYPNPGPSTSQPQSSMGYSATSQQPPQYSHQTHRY

## CN1CCN(C(=O)c2ccc3cc(CCNc4ncnc5ccc(C#N)cc45)ccc3c2)CC1 [SNX2-1-165]
MDA-MB-231
  body weight difference from control: no significant weight difference from the control
CDK8 [1]
  pKd: 6.85
[2]
  area under the curve (AUC): 14100 ng·h/mL
Water solubility
  Water Solubility: ≥ 50 mM
Water solubility; listed as 165
  Water Solubility: Soluble at 50 mM
[3]
  oral availability: orally available
  peak plasma concentrations: ~50 µM
[4]; 5 daily doses, 2-day break
  body weight gains at end of study: indistinguishable from the carrier-treated mice
[4]; 12-day study
  decrease in lymphocytes (blood counts): ~25%
  spleen weight decrease: ~20%
[4]; 12-day study, relative to control mice
  blood counts, other cell types: no changes
CDK8 [5]
  pIC50: 7.30 to 7.62
MDA-MB-468
  tumor growth (tumor volumes after 30 days of treatment): significantly slowed down the tumor growth
MAP4K2
  % inhibition of MAP4K2: 69%
